Legend:
Assay type in all cases: biochemical
KDR(h) = biological target: T1, KDR(h) (Homo sapiens, UniProt P35968); experiment: Upstate KinaseProfiler enzyme assay, KDR; settings: 500 nM compound; read-out: Percent inhibition at 500 nM KDR(h)
T1 construct: purchased Upstate Biotechnology (Dundee, UK), KinaseProfiler service
Procedure, shortened: (§1)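 First, enzymes were pre-diluted (10× working) in 20 mM MOPS, pH 7.0, supplemented with EDTA (1 mM), BSA (1 mg/ml) and glycerol (5%), plus 0.1% β-mercaptoethanol and 0.01% Brij-35. Next, they were added to the assay alongside substrates diluted in de-ionised water.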

Blk(m) = biological target: T2, Blk(m) (Mus musculus, UniProt P16277); experiment: Upstate KinaseProfiler enzyme assay, Blk; settings: 500 nM compound; read-out: Percent inhibition at 500 nM Blk(m)
T2 construct: purchased Upstate Biotechnology (Dundee, UK), KinaseProfiler service
Procedure, shortened: as §1

Bmx(h) = biological target: T3, Bmx(h) (Homo sapiens, UniProt P51813); experiment: Upstate KinaseProfiler enzyme assay, Bmx; settings: 500 nM compound; read-out: Percent inhibition at 500 nM Bmx(h)
T3 construct: purchased Upstate Biotechnology (Dundee, UK), KinaseProfiler service
T3 sequence (P51813 1-675): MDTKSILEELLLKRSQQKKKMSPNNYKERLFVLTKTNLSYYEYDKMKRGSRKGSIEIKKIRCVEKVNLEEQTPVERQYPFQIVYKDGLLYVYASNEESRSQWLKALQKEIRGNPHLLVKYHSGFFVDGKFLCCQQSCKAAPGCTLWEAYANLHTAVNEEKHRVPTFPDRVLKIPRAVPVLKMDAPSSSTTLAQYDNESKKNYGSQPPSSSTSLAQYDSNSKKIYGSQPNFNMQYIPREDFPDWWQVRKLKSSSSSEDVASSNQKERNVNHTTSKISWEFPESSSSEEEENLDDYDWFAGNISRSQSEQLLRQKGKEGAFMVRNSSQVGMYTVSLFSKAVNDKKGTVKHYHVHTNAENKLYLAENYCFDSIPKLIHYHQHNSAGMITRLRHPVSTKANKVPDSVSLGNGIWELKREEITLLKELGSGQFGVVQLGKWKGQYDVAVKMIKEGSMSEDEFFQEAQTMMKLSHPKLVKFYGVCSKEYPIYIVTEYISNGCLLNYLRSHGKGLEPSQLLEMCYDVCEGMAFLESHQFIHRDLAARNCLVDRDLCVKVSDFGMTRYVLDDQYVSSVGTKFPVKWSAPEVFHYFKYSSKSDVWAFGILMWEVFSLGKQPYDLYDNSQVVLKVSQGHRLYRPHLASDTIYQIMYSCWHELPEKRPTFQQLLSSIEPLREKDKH
Procedure, shortened: as §1

BTK(h) = biological target: T4, BTK(h) (Homo sapiens, UniProt Q06187); experiment: Upstate KinaseProfiler enzyme assay, BTK; settings: 500 nM compound; read-out: Percent inhibition at 500 nM BTK(h)
T4 construct: purchased Upstate Biotechnology (Dundee, UK), KinaseProfiler service
Procedure, shortened: as §1

Flt 1(h) = biological target: T5, Flt 1(h) (Homo sapiens, UniProt P17948); experiment: Upstate KinaseProfiler enzyme assay, Flt 1; settings: 500 nM compound; read-out: Percent inhibition at 500 nM Flt 1(h)
T5 construct: purchased Upstate Biotechnology (Dundee, UK), KinaseProfiler service
Procedure, shortened: as §1

Flt 4(h) = biological target: T6, Flt 4(h) (Homo sapiens, UniProt P35916); experiment: Upstate KinaseProfiler enzyme assay, Flt 4; settings: 500 nM compound; read-out: Percent inhibition at 500 nM Flt 4(h)
T6 construct: purchased Upstate Biotechnology (Dundee, UK), KinaseProfiler service
Procedure, shortened: as §1

T4 sequence (Q06187 whole entry): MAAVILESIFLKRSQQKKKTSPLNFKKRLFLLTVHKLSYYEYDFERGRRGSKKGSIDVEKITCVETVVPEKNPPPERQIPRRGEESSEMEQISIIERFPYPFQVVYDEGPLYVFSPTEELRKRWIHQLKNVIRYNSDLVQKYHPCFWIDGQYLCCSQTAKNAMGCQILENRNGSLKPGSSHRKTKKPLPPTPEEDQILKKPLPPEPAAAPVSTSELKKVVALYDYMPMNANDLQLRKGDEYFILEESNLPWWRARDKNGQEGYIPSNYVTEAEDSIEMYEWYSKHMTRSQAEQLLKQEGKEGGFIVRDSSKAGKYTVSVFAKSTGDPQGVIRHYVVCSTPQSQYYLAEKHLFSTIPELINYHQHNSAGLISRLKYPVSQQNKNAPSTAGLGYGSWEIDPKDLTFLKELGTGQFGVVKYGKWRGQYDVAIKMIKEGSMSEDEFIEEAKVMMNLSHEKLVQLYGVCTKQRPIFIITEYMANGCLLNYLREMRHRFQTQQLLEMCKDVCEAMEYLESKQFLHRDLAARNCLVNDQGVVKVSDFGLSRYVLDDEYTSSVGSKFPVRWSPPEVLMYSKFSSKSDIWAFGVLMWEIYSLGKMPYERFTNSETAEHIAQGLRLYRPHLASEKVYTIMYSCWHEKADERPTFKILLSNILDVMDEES
T1 sequence (P35968 20-1356): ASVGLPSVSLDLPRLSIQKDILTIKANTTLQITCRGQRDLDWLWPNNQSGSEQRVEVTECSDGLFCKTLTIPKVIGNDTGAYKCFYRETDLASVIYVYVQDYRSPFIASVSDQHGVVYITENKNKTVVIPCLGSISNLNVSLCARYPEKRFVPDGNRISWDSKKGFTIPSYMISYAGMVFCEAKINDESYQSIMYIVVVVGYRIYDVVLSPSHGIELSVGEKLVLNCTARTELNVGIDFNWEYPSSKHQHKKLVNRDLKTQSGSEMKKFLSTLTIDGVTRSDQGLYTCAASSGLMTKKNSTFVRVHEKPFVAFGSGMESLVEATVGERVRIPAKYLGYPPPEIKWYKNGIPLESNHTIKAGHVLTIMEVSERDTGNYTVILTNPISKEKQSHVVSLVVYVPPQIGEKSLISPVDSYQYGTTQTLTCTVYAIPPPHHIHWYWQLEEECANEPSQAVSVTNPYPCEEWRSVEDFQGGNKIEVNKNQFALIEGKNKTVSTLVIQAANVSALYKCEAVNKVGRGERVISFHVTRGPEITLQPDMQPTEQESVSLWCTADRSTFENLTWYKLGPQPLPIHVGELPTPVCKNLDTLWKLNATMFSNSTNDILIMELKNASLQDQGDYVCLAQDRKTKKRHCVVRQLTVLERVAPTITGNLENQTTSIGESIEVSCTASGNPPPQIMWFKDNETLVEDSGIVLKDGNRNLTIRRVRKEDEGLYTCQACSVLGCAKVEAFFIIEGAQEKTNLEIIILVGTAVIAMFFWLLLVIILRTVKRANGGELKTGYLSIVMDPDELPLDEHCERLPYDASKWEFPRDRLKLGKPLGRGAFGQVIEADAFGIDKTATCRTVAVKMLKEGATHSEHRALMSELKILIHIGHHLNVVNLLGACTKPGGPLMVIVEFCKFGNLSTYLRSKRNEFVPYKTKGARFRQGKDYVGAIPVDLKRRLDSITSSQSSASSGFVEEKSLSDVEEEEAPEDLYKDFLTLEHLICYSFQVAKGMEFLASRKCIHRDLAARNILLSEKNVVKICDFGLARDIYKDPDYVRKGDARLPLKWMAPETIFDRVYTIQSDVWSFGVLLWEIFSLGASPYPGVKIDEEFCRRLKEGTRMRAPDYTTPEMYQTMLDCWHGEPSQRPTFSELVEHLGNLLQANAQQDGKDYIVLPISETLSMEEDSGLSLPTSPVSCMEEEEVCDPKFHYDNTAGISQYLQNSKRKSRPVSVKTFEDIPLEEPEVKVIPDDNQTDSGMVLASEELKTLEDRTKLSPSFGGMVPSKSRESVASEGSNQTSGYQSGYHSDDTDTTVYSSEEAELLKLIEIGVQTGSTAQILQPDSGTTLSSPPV
T6 sequence (P35916 25-1363): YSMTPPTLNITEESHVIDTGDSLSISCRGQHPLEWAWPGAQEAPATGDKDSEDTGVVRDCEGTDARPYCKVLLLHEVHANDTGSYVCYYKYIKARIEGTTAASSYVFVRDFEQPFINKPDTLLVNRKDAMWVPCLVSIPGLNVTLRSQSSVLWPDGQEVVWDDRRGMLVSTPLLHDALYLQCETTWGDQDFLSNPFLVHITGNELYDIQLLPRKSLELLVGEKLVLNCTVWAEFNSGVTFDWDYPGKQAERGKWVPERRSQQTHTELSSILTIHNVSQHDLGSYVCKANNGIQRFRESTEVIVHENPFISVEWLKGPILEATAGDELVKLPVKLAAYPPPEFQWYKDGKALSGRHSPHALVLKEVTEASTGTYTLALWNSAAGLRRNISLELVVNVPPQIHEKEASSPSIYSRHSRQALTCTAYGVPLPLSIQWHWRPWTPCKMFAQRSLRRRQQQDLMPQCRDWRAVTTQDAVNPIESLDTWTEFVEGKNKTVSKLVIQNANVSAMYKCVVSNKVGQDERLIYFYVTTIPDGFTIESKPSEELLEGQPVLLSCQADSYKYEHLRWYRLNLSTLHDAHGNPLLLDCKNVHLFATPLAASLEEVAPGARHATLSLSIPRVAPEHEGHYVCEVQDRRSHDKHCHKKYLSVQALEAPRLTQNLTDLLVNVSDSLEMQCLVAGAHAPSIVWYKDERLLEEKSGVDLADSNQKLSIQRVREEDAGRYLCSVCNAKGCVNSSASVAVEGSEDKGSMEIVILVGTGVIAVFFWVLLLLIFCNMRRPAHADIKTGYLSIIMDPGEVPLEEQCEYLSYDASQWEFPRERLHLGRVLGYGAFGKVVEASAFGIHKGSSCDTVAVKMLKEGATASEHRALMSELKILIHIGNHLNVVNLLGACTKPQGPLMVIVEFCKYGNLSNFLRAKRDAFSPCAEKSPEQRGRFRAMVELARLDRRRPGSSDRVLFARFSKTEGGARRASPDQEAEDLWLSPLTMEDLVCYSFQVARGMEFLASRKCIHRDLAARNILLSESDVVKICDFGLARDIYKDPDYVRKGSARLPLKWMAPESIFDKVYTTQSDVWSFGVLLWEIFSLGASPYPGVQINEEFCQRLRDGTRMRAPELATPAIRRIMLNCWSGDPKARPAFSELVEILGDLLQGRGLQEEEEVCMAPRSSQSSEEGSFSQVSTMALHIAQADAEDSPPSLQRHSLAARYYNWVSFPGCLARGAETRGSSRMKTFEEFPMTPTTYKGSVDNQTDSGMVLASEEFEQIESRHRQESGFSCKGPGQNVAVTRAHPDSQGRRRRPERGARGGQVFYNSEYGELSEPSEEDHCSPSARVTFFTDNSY
T2 sequence (P16277 whole entry): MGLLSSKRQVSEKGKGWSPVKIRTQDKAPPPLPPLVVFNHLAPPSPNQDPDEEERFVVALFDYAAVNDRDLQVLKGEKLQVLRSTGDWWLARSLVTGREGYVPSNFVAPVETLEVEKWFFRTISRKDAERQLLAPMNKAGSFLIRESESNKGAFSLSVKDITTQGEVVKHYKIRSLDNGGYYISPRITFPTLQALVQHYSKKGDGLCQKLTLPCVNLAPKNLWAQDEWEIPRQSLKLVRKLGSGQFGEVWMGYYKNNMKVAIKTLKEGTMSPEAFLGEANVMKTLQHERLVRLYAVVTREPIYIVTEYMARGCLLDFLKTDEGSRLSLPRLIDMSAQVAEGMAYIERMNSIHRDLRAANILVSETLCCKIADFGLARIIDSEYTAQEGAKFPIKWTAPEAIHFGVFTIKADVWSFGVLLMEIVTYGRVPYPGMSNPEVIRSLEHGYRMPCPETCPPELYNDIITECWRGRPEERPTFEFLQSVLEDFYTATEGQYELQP

| SMILES | inhibition at 0.5 µM (KDR(h)) [%] | inhibition at 0.5 µM (Blk(m)) [%] | inhibition at 0.5 µM (Bmx(h)) [%] | inhibition at 0.5 µM (BTK(h)) [%] | inhibition at 0.5 µM (Flt 1(h)) [%] | inhibition at 0.5 µM (Flt 4(h)) [%] |
| --- | --- | --- | --- | --- | --- | --- |
| CC#CC(=O)Nc1ccc(Sc2nc(Nc3ccc(N4CCOCC4)cc3)ncc2C)cc1 [Compound 125, N-(4-(5-methyl-2-(4-morpholinophenylao)pyrimidin-4-ylthio)phenyl)but-2-ynamide] | 100 | 100 | 100 | 100 |  |  |
| C=CC(=O)Nc1ccc(Sc2nc(Nc3ccc(N4CCOCC4)cc3)ncc2-c2ccccc2)cc1 [Compound 307, N-(4-(2-(4-morpholinophenylao)-5-phenylpyrimidin-4-ylthio)phenyl)acrylamide] | 72 | 0 | 29 |  | 19 | 93 |
| C=CC(=O)Nc1ccc(Sc2ccnc(Nc3ccccc3)n2)cc1 [Compound 350, N-(4-(2-(phenylao)pyrimidin-4-ylthio)phenyl)acrylamide] | 100 | 100 | 100 | 100 |  |  |
| Cc1cnc(Nc2ccc(N3CCOCC3)cc2)nc1Sc1ccc(N)cc1 [Compound 126, 4-(4-aophenylthio)-5-methyl-N-(4-morpholinophenyl)pyrimidin-2-ae] | 95 | 43 | 78 |  | 93 | 99 |
| C=CC(=O)Nc1ccc(Sc2ccnc(Nc3ccc(OC)c(O)c3)n2)cc1 [Compound 97] | 100 | 100 | 100 | 100 |  |  |
| C=CC(=O)Nc1ccc(Sc2ccnc(Nc3cccc(OC)c3)n2)cc1 [Compound 105, N-(4-(2-(3-methoxyphenylao)pyrimidin-4-ylthio)phenyl)acrylamide] | 100 | 100 | 100 | 100 |  |  |
| C=CC(=O)Nc1ccc(Sc2ccnc(Nc3ccc(S(N)(=O)=O)cc3)n2)cc1 [Compound 352, N-(4-(2-(4-sulfamoylphenylao)pyrimidin-4-ylthio)phenyl)acrylamide] | 100 | 100 | 100 | 100 |  |  |
| C=CC(=O)Nc1cccc(Sc2ccnc(Nc3ccc(OC)cc3)n2)c1 [Compound 120, N-(3-(2-(4-methoxyphenylao)pyrimidin-4-ylthio)phenyl)acrylamide] | 100 | 100 | 100 | 100 |  |  |
| C=CC(=O)Nc1ccc(Sc2ccnc(Nc3ccc(F)c(C#N)c3)n2)cc1 [Compound 354, N-(4-(2-(3-cyano-4-fluorophenylao)pyrimidin-4-ylthio)phenyl)acrylamide] | 100 | 100 | 100 | 100 |  |  |
| C=CC(=O)Nc1ccc(Sc2ccnc(Nc3cccc(C#N)c3)n2)cc1 [Compound 118, N-(4-(2-(3-cyanophenylao)pyrimidin-4-ylthio)phenyl)acrylamide] | 100 | 100 | 100 | 100 |  |  |
| C=CC(=O)Nc1ccc(Sc2ccnc(Nc3ccc(N4CCC(N5CCCC5)CC4)cc3)n2)cc1 [Compound 87, N-(4-(2-(4-(4-(pyrrolidin-1-yl)piperidin-1-yl)phenylao)pyrimidin-4-ylthio)phenyl)acrylamide] | 100 | 100 | 100 | 100 |  |  |
| C=CC(=O)Nc1ccc(Sc2ccnc(Nc3ccc(N4CCS(=O)(=O)CC4)cc3)n2)cc1 [Compound 99, N-{4-[(2-{[4-(1,1-dioxo-1λ^6,4-thiomorpholin-4-yl)phenyl]ao}pyrimidin-4-yl)sulfanyl]phenyl}prop-2-enamide] | 100 | 100 | 100 | 100 |  |  |
| C=CC(=O)Nc1ccc(Sc2ccnc(Nc3ccc(N4CCOCC4)cc3)n2)c(Cl)c1C [Compound 161, N-(3-chloro-2-methyl-4-(2-(4-morpholinophenylao)pyrimidin-4-ylthio)phenyl)acrylamide] | 100 | 100 | 100 | 100 |  |  |
| C=CC(=O)Nc1ccc(Sc2ccnc(Nc3ccc(Cl)cc3)n2)cc1 [Compound 353, N-(4-(2-(4-chlorophenylao)pyrimidin-4-ylthio)phenyl)acrylamide] | 100 | 100 | 100 | 100 |  |  |
| C=CC(=O)Nc1ccc(Sc2ccnc(Nc3ccc(C#N)cc3)n2)cc1 [Compound 131, N-(4-(2-(4-cyanophenylao)pyrimidin-4-ylthio)phenyl)acrylamide] | 100 | 100 | 100 | 100 |  |  |
| C=CC(=O)Nc1ccc(Sc2ccnc(Nc3cccc(C(=O)OC)c3)n2)cc1 [Compound 356, methyl 3-(4-(4-acrylamidophenylthio)pyrimidin-2-ylao)benzoate] | 100 | 100 | 100 | 100 |  |  |
| C=CC(=O)Nc1ccc(Sc2ccnc(Nc3ccc(C(=O)OC)cc3)n2)cc1 [Compound 357, methyl 4-(4-(4-acrylamidophenylthio)pyrimidin-2-ylao)benzoate] | 95 | 48 | 48 |  | 76 | 99 |
| CC#CC(=O)Nc1ccc(Sc2ccnc(Nc3ccc(N4CCOCC4)cc3)n2)cc1 [Compound 104, N-(4-(2-(4-morpholinophenylao)pyrimidin-4-ylthio)phenyl)but-2-ynamide] |  | 30 | 100 | 73 |  |  |
| C=CC(=O)Nc1cc(C)c(Sc2nc(Nc3ccc(N4CCOCC4)cc3)ncc2C)c(C)c1 [Compound 164, N-(3,5-dimethyl-4-(5-methyl-2-(4-morpholinophenylao)pyrimidin-4-ylthio)phenyl)acrylamide] | 83 | 62 | 87 |  | 44 | 97 |
| C=CC(=O)Nc1ccc(Sc2ccnc(Nc3cccc(S(N)(=O)=O)c3)n2)cc1 [Compound 364, N-(4-(2-(3-sulfamoylphenylao)pyrimidin-4-ylthio)phenyl)acrylamide] | 96 | 81 | 73 |  | 97 | 99 |
| CC(=O)Nc1ccc(Sc2nc(Nc3ccc(N4CCOCC4)cc3)ncc2C)cc1 [Compound 135, N-(4-(5-methyl-2-(4-morpholinophenylao)pyrimidin-4-ylthio)phenyl)acetamide] | 95 | 9 | 58 |  | 96 | 99 |
| C=CC(=O)Nc1ccc(Sc2ccnc(Nc3ccc(OC)cc3)n2)cc1 [Compound 74, N-(4-(2-(4-methoxyphenylao)pyrimidin-4-ylthio)phenyl)acrylamide] | 100 | 100 | 100 | 100 |  |  |

From patent US8846704B2, “Thiopyrimidine-based compounds and uses thereof” (YM Biosciences Austraila Pty Ltd, priority 2007, dated 2014)
